Experimental data reported in BigSolDB 2.1.

Clc1ccccc1C(c1ccccc1)(c1ccccc1)n1ccnc1
solubility (mole fraction)
Conditions	293.15 K	298.15 K	303.15 K	308.15 K	313.15 K
in n-hexane	0.000222	0.000267	0.000319	0.000383	0.000455
in n-octanol	0.0204	0.0249	0.0304	0.0372	0.045
